Results from the supplement of paper PMC5579334.

Tests used:
HS-PSS [1] = experiment: drug sensitivity score (DSS, CellTox-Green cytotoxicity, 72 h) (DSS (dimensionless)); higher = more cytotoxic; extreme values may be limits of the assay
Summary of the method: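 MPNST cell lines and primary human Schwann cells were grown for 72 h at 37 °C in 384-well plates containing five 10-fold compound dilutions. CellTox-Green, added before seeding at a final 1:1000 dilution, gave fluorescence from DNA released by disrupted cells, and signals were scaled to vehicle and positive-control wells. Curves were fitted with a four-parameter logistic model. Drug sensitivity score and relative IC50 come from these fits, with IC50 censored at the top concentration.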

YST-1 [2] = experiment: drug sensitivity score (DSS, CellTiter-Glo viability, 72 h) (DSS (dimensionless)); higher = more sensitive; extreme values may be limits of the assay
Summary of the method: (§1)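 For this screen, 384-well plates were preprinted with each compound at five concentrations in 10-fold steps and seeded with MPNST cell lines or primary human Schwann cells at 750–1000 cells per well. Incubation lasted 72 h at 37 °C, 5% CO2, and CellTiter-Glo ATP luminescence, scaled between vehicle and positive-control wells and averaged over duplicates where available, served as viability. Logistic fits with four parameters were applied. Relative IC50 (censored at the top concentration) and drug sensitivity score derive from these fits, and percent inhibition is at the top concentration.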

HS-PSS [3] = experiment: as above
Summary of the method: as §1

HS-Sch-2 [4] = experiment: as above
Summary of the method: as §1

YST-1 [5] = experiment: % inhibition of CellTiter-Glo viability at highest tested concentration (72 h), relative to DMSO and benzethonium chloride controls; higher = more inhibition
Summary of the method: as §1

HS-PSS [6] = experiment: as above
Summary of the method: as §1

HS-Sch-2 [7] = experiment: as above
Summary of the method: as §1

| Structure (SMILES) | drug sensitivity score (HS-PSS [1]) | drug sensitivity score (YST-1 [2]) | drug sensitivity score (HS-PSS [3]) | drug sensitivity score (HS-Sch-2 [4]) | % inhibition (YST-1 [5]) | % inhibition (HS-PSS [6]) | % inhibition (HS-Sch-2 [7]) |
| --- | --- | --- | --- | --- | --- | --- | --- |
| Cc1nc(NC(=O)N2CCC[C@H]2C(N)=O)sc1-c1ccnc(C(C)(C)C(F)(F)F)c1 [Alpelisib] (max concentration tested 2500 nM) | 0 | 7.32 | 0.35 | 1.18 | 63.6% | 13% | 21.2% |
| O=c1sn(-c2cccc3ccccc23)c(=O)n1Cc1ccccc1 [Tideglusib] (max concentration tested 3000 nM) | 0 | 0 | 0 | 0 | 3.93% | 6.62% | 2.01% |
| COc1cc(Nc2ncc(F)c(Nc3ccc4c(n3)N(COP(=O)(O)O)C(=O)C(C)(C)O4)n2)cc(OC)c1OC [Fostamatinib] (max concentration tested 2500 nM) | 0 | 4.22 | 2.95 | 2.96 | 67.3% | 40.4% | 36% |
| O=C(Nc1nc2ccccc2n1CCN1CCOCC1)c1cccc([N+](=O)[O-])c1 [IRAK1/4 inhibitor] (max concentration tested 25000 nM) | 0 | 0 | 0 | 0 | 6.78% | 3.76% | -2.86% |
| COc1cc2nccc(Oc3ccc(NC(=O)NC4CC4)c(Cl)c3)c2cc1C(N)=O [Lenvatinib] (max concentration tested 2500 nM) | 0 | 0.83 | 0 | 0.06 | 18.1% | 5.51% | 15% |
| Nc1nc(Nc2ccc3c(c2)CC[C@@H](N2CCCC2)CC3)nn1-c1cc2c(nn1)-c1ccccc1CCC2 [BGB324] (max concentration tested 10000 nM) | 0 | 7.59 | 2.95 | 14.4 | 99.3% | 23.7% | 99.5% |
| N#Cc1ccc2[nH]c(O)c(-c3ccc(CN4CCOCC4)cn3)c2c1 [AZD-1080] (max concentration tested 10000 nM) | 0 | 0 | 2.89 | 3.74 | 4.49% | 43.5% | 77.1% |
| CCC(C)n1ncn(-c2ccc(N3CCN(c4ccc(OCC5COC(Cn6cncn6)(c6ccc(Cl)cc6Cl)O5)cc4)CC3)cc2)c1=O (configuration not stated) [Itraconazole] (max concentration tested 5000 nM) | 0 | 1.58 | 4.25 | 0.33 | 33.2% | 50.9% | 11.3% |
| COC[C@H](NC(=O)c1cnc(C)s1)C(=O)N[C@@H](COC)C(=O)N[C@@H](Cc1ccccc1)C(=O)[C@@]1(C)CO1 [Oprozomib] (max concentration tested 2500 nM) | 7.1 | 18.4 | 14.3 | 26.3 | 101% | 98.3% | 102% |
| CC1(C)CCC(CN2CCN(c3ccc(C(=O)NS(=O)(=O)c4ccc(NCC5CCOCC5)c([N+](=O)[O-])c4)c(Oc4cnc5[nH]ccc5c4)c3)CC2)=C(c2ccc(Cl)cc2)C1 [Venetoclax] (max concentration tested 1000 nM) | 0 | 0.21 | 0 | 0 | 16.4% | -9.6% | 0.97% |
| CCS(=O)(=O)N1CC(CC#N)(n2cc(-c3ncnc4[nH]ccc34)cn2)C1 [Baricitinib] (max concentration tested 2500 nM) | 0 | 0 | 0 | 0 | -0.02% | 1.87% | 4.94% |
| CCN(CC)CCCC(C)Nc1c2ccc(Cl)cc2nc2ccc(OC)cc12 (configuration not stated) [Mepacrine] (max concentration tested 50000 nM) | 18 | 17.3 | 18.5 | 18.5 | 101% | 101% | 101% |
| Cc1cccc(CC(=O)N2CCc3c2ccc(-c2cn(C)c4ncnc(N)c24)c3F)n1 (max concentration tested 2500 nM) | 0 | 0.36 | 0.96 | 0.16 | 14.4% | 29.6% | 16.1% |
| Nc1nc2[nH]cc(CCc3ccc(C(=O)N[C@@H](CCC(=O)O)C(=O)O)cc3)c2c(=O)[nH]1 [Pemetrexed] (max concentration tested 10000 nM) | 0 | 4.42 | 0 | 17.1 | 19.7% | 6.45% | 62.5% |
| O=c1cc(N2CCOCC2)oc2c(-c3ccccc3)cccc12 (max concentration tested 100000 nM) | 2.67 | 12 | 7.1 | 7.3 | 96.1% | 69.6% | 72.3% |
| c1cc(CN2CCCNCCNCCCNCC2)ccc1CN1CCCNCCNCCCNCC1 [Plerixafor] (max concentration tested 10000 nM) | 0 | 0 | 0.55 | 0 | -8.03% | 14.2% | 5.96% |
| O=C(NC[C@H](O)CN1CCc2ccccc2C1)c1cc(NC2COC2)ncn1 (max concentration tested 10000 nM) | 0 | 0.06 | 0.24 | 0.29 | 14.1% | 17.6% | 10.7% |
| O=C1NC(=O)/C(=C/c2ccc3nccc(-c4ccncc4)c3c2)S1 (max concentration tested 10000 nM) | 0 | 9.37 | 2.69 | 1.71 | 86.6% | 49.6% | 37.8% |

| Structure (SMILES) | drug sensitivity score (HS-PSS [1]) | drug sensitivity score (YST-1 [2]) | drug sensitivity score (HS-PSS [3]) | drug sensitivity score (HS-Sch-2 [4]) | % inhibition (YST-1 [5]) | % inhibition (HS-PSS [6]) | % inhibition (HS-Sch-2 [7]) |
| --- | --- | --- | --- | --- | --- | --- | --- |
| Cc1c(F)cc(C(=O)NC2CC2)cc1-c1ccc(C(=O)NCC(C)(C)C)cn1 [Losmapimod] (max concentration tested 10000 nM) | 0 | 10.1 | 0 | 0 | 32.3% | 8.01% | 1.17% |
| Cn1cc(C[C@@H](N)C(=O)O)c2ccccc21 [1-methyl-D-tryptophan] (max concentration tested 5000 nM) | 0 | 0 | 0 | 0 | -5.86% | 6.24% | 2.88% |
| Cn1ncc(Cl)c1-c1cc(C(=O)N[C@H](CN)Cc2cccc(F)c2)sc1Cl [Afuresertib] (max concentration tested 1000 nM) | 0 | 1.39 | 0.07 | 0 | 32% | 13.3% | 1.85% |
| Cc1cc([C@@H](C)Nc2ccccc2C(=O)O)c2nc(N3CCOCC3)cc(=O)n2c1 [AZD-6482] (max concentration tested 2500 nM) | 0 | 0.53 | 0 | 0 | 17.1% | 9.25% | 0.36% |
| C=CC(=O)Nc1cc(Nc2nccc(-c3cn(C)c4ccccc34)n2)c(OC)cc1N(C)CCN(C)C [Osimertinib] (max concentration tested 2500 nM) | 0.95 | 6.9 | 5.5 | 4.21 | 63.7% | 66.3% | 73.2% |
| CCN(CC)Cc1ccc2cc(COC(=O)Nc3ccc(C(=O)NO)cc3)ccc2c1 [Givinostat] (max concentration tested 1000 nM) | 1.98 | 13.1 | 3.45 | 8.81 | 98.9% | 69.4% | 98% |
| O=C(O)CSc1cc(NS(=O)(=O)c2ccc(Br)cc2)c2ccccc2c1O [UMI-77] (max concentration tested 100000 nM) | 4.6 | 18.2 | 6.44 | 14.4 | 102% | 101% | 101% |
| Cc1cc(OCc2nnc(SC3CCCC3)n2-c2cccnc2)ccc1-c1ccc(S(C)(=O)=O)cc1 [NMS-873] (max concentration tested 10000 nM) | 5.58 | 9.52 | 22.9 | 19.2 | 99.9% | 99.9% | 101% |
| CN(c1ncccc1CNc1nc(Nc2ccc3c(c2)CC(=O)N3)ncc1C(F)(F)F)S(C)(=O)=O (max concentration tested 10000 nM) | 0.03 | 7.85 | 3.86 | 5.18 | 98.6% | 73.3% | 99.2% |
| O=c1ncn2nc(Sc3ccc(F)cc3F)ccc2c1-c1c(Cl)cccc1Cl [VX 745] (max concentration tested 10000 nM) | 0 | 3.73 | 0.47 | 0.7 | 31.1% | 21.1% | 22.6% |
| C[C@@H]1CN(Cc2ccc(F)cc2)[C@@H](C)CN1C(=O)c1cc2c(C(=O)C(=O)N(C)C)cn(C)c2cc1Cl [Talmapimod] (max concentration tested 10000 nM) | 0 | 6.19 | 0.11 | 0 | 37.4% | 13.9% | -10% |
| COCC(=O)NC/C=C/c1ccc2ncnc(Nc3ccc(Oc4ccc(C)nc4)c(C)c3)c2c1 (max concentration tested 10000 nM) | 0 | 0.62 | 5.3 | 3.05 | 19.9% | 56.7% | 32.2% |
| Cc1cc2c(C(=O)NC[C@H](C)c3ccccc3)c(O)c(O)cc2c(O)c1-c1c(C)cc2c(C(=O)NC[C@H](C)c3ccccc3)c(O)c(O)cc2c1O [Sabutoclax] (max concentration tested 25000 nM) | 0 | 17.3 | 4.91 | 19.6 | 89.2% | 96.5% | 99.7% |
| C[C@@H]1C[C@H]2O[C@@H]2/C=C\C=C\C(=O)Cc2c(Cl)c(O)cc(O)c2C(=O)O1 [Radicicol] (max concentration tested 10000 nM) | 4.33 | 12.1 | 12.9 | 16.3 | 94% | 86.2% | 99.8% |
| CCCOc1ccn2c(C(C)=O)cc(-c3ccccc3S(C)(=O)=O)c2c1 [GSK2801] (max concentration tested 10000 nM) | 0 | 0 | 0 | 0 | 0.58% | 0.71% | -6.2% |
| O=C1c2ccccc2-c2n[nH]c3cccc1c23 (max concentration tested 100000 nM) | 0.2 | 2.42 | 4.26 | 2.29 | 34.2% | 43.2% | 27.4% |
| Cn1nnc2c(C(N)=O)ncn2c1=O [Temozolomide] (max concentration tested 100000 nM) | 0 | 0.08 | 0 | 1.67 | 11.6% | 8.55% | 20.4% |
| CCCCC/C=C/C=C1/C(=O)C=C[C@@H]1C/C=C\CCCC(=O)O [15D-PGJ2] (max concentration tested 3000 nM) | 0 | 0 | 0 | 0.58 | -5.83% | 3.17% | 16.9% |
